Here are results for five molecules from patent EP0098577A2, “Drugs for treating diarrhea caused by infection” (HOECHST AKTIENGESELLSCHAFT, priority 1982, dated 1984).

Where two headings read alike, the source gives them in different places.

Holding throughout (experiment): in vitro checkerboard method (Schachbrettmethode): MHK and FIC-Index
Holding throughout (type): cell-based

For one experiment, the system named is Staph. aureus SG 511. The note with it: Staphylococcus aureus, SG511, single substance. The source says: (§1) Zur Untersuchung der erfindungsgemäßen Kombination wurden mit typischen Vertretern der grampositiven und gramnegativen Keimgruppen in vitro Versuche durchgeführt. Mit der für Kombinationsversuche üblichen Methode, der sogenannten "Schachbrettmethode" (vgl. "Antibiotics in Laboratory Medicine", Editor Lorian, Baltimore London 1980, Seiten 300-309), wurden sowohl die minimalen Hemmkonzentrationen (MHK) als auch die Hemmgrenzen in den einzelnen Kombinationen bestimmt. Das Endergebnis wurde als FIC-Index (Fractional Inhibitory Concentration Index) ausgedrückt. Der FIC-Index berechnet sich nach folgender Formel: [formula]
(§2) Hierbei ist A bzw. B die niedrigste Konzentration der Verbindungen A bzw. B, die in Kombination mit der Verbindung B bzw. A eine Hemmwirkung zeigt. Dieser Wert wird durch die MHK der Verbindung A bzw. B dividiert. Der so erhaltene FIC-Index gibt Aufschluß über die Interaktionen von zwei Verbindungen in ihrer antibakteriellen Wirkung. FIC-Index-Zahlen, die kleiner als 1 sind, drücken eine synergistische Wirkung aus. Die mit dieser Methode ermittelten Resultate sind in den nachstehenden Tabellen zusammengestellt.
(§3) In den nachstehenden Tabellen sind in den ersten beiden Spalten die minimalen Hemmkonzentrationen der geprüften Verbindungen in Mikrogramm pro Milliliter aufgeführt. In einigen Fällen sind abweichende Konzentrationseinheiten angegeben, z.B. Nanogramm [ng] oder Milligramm [mg] pro Milliliter. Wenn ein FIC-Index nicht angegeben wurde, so bedeutet dies, daß aufgrund der Unwirksamkeit des einen Wirkstoffes keine Grenze zu ermitteln war.

Experiment [1] has as its system Micrococcus luteus ATCC 9341.
Excerpt: as §1, §2, §3

Another experiment has as its system Strept. pyogenes A 77. The note with it: Streptococcus pyogenes, A77, single substance.
Excerpt: as §1, §2, §3

A further experiment has as its system Strept. faecium D. The settings on record: Enterococcus faecium, single substance.
Excerpt: as §1, §2, §3

The test system of a further experiment is Enterobacter cloacae. The settings on record: read-out: MHK.
Excerpt: as §1, §2, §3

The test system of experiment [2] is Pseud. aeruginosa ATCC 9027. The settings on record: Pseudomonas aeruginosa, ATCC9027, in vitro, single substance.
Excerpt: as §1, §2, §3

In a further experiment the test system is Pseud. aeruginosa 1771 m. The settings on record: single substance; for MIC: Pseudomonas aeruginosa, 1771M.
Excerpt: as §1, §2, §3

Experiment [3] concerns Pseud. aeruginosa NCTC 10701. The settings on record: Pseudomonas aeruginosa, NCTC10701, in vitro, single substance.
Excerpt: as §1, §2, §3

In experiment [4] the test system is Serratia marcescens A 20019. The note with it: single substance; for MIC: Serratia marcescens, A20019, in vitro.
Excerpt: as §1, §2, §3

For a further experiment, the system named is Hafnia alvei ATCC 11604.
Excerpt: as §1, §2, §3

For the next experiment, the system named is Salmonella paratyphi A. The note with it: Salmonella enterica, read-out: MHK.
Excerpt: as §1, §2, §3

Another experiment has as its system Proteus rettgeri 936. The note with it: single substance; for MIC: Providencia rettgeri, 936, in vitro.
Excerpt: as §1, §2, §3

A further experiment concerns E. coli TEM. The settings on record: Escherichia coli, read-out: MHK.
Excerpt: as §1, §2, §3

The next experiment relates to Salmonella typhimurium. The note with it: for MIC: Salmonella enterica, TYPHIMURIUM, read-out: MHK.
Excerpt: as §1, §2, §3

The subject of a further experiment is E. coli 0 86. The note with it: Escherichia coli, 086, single substance, ng per millilitre (b7).
Excerpt: as §1, §2, §3

The subject of a further experiment is Salmonella oranienburg. The note with it: Salmonella enterica, single substance.
Excerpt: as §1, §2, §3

For another experiment, the system named is E. coli 0 55. The settings on record: single substance; for MIC: Escherichia coli, 055, in vitro.
Excerpt: as §1, §2, §3

Experiment [5] relates to Serratia marcescens A 20460. The settings on record: for MIC: Serratia marcescens.
Excerpt: as §1, §2, §3

The subject of experiment [6] is Klebsiella pneumoniae A 9977.
Excerpt: as §1, §2, §3

Experiment [7] has as its system Bacillus subtilis ATCC 6633.
Excerpt: as §1, §2, §3

The mark [8] stands for this setting: ATCC9341, in vitro, single substance, Micrococcus luteus ATCC 9341, read-out: MHK.
[9] abbreviates: in vitro, single substance, Salmonella typhimurium.

`COn1cc(C(=O)O)c(=O)c2cc3c(cc21)OCO3` [Miloxacin]: the MIC with Staph. aureus SG 511 is 6.25 µg/mL; in experiment [1] (ATCC9341, in vitro, single substance, Micrococcus luteus ATCC 9341, mg per millilitre (b7), read-out: MHK), over 1000 µg/mL; with Strept. pyogenes A 77 (mg per millilitre (b7)), over 1000 µg/mL; with Strept. faecium D (mg per millilitre (b7)), over 1000 µg/mL; with Enterobacter cloacae (in vitro, single substance) it was 2.5 µg/mL; in experiment [2] it was 25 µg/mL. Besides, the MIC is 50 µg/mL with Pseud. aeruginosa 1771 m and 31.2 µg/mL in experiment [3].

As to `CCn1cc(C(=O)O)c(=O)c2cc(F)c(N3CCNCC3)cc21` [Norfloxacin], the MIC in experiment [4] (ng per millilitre (b7)) is 0.0781 µg/mL; in experiment [1] (setting [8]) it was 12.5 µg/mL; in the experiment on Hafnia alvei ATCC 11604 (Hafnia alvei, ATCC11604, read-out: MHK) it was 0.0195 µg/mL; in the experiment on Salmonella paratyphi A, 0.0195 µg/mL; with Proteus rettgeri 936 (ng per millilitre (b7)), 0.0781 µg/mL; in the experiment on Strept. pyogenes A 77, 2.5 µg/mL. In addition, the MIC in the experiment with E. coli TEM was 0.0391 µg/mL; with Strept. faecium D, 1.25 µg/mL; in the experiment with Salmonella typhimurium it was 0.0195 µg/mL; in the experiment on E. coli 0 86 it was 0.0391 µg/mL; with Salmonella oranienburg (ng per millilitre (b7)), 0.0781 µg/mL; in the experiment on E. coli 0 55 (ng per millilitre (b7)), 0.0391 µg/mL.

For `CCn1cc(C(=O)O)c(=O)c2ccc(C)nc21` [Nalidixinsäure], the MIC in the experiment with Staph. aureus SG 511 is 50 µg/mL; in experiment [1] (Micrococcus luteus, ATCC9341, read-out: MHK), over 1000 µg/mL; in [5] (A20460, read-out: MHK), 6.25 µg/mL; in the experiment with Strept. pyogenes A 77 (mg per millilitre (b7)), over 1000 µg/mL; in experiment [6] (Klebsiella pneumoniae, A9977, read-out: MHK) it was 6.25 µg/mL; in experiment [7] (Bacillus subtilis, ATCC6633, read-out: MHK) it was 6.25 µg/mL. For the same molecule, the MIC came out at 500 µg/mL in the experiment on Strept. faecium D; 6.25 µg/mL with Enterobacter cloacae; 500 µg/mL in [2]; 100 µg/mL in the experiment with Pseud. aeruginosa 1771 m; 250 µg/mL in experiment [3].

As to `CCOc1ccc2nc3cc(N)ccc3c(N)c2c1` [EAL, Ethacridinlactat], the MIC in experiment [4] (mg per millilitre (b7)) is 1000 µg/mL; with Staph. aureus SG 511, 6.25 µg/mL; in experiment [1] (setting [8]) it was 6.25 µg/mL; in the experiment with Hafnia alvei ATCC 11604 (ATCC11604, in vitro, single substance, Hafnia alvei ATCC 11604, read-out: MHK) it was 62.5 µg/mL; in the experiment on Salmonella paratyphi A, 12.5 µg/mL; in experiment [5] (A20460, in vitro, single substance, Serratia marcescens A 20460, mg per millilitre (b7), read-out: MHK), over 1000 µg/mL. Further, the MIC in the experiment on Proteus rettgeri 936 worked out at 31.2 µg/mL; with E. coli TEM it was 12.5 µg/mL; in experiment [6] (A9977, in vitro, single substance, Klebsiella pneumoniae A 9977, read-out: MHK), 125 µg/mL; in the experiment with Strept. faecium D it was 12.5 µg/mL; in experiment [2], 12.5 µg/mL; with Pseud. aeruginosa 1771 m, 31.2 µg/mL. In addition, the MIC was determined as 25 µg/mL with Salmonella typhimurium (setting [9]), 62.5 µg/mL in the experiment on Salmonella oranienburg, 6.25 µg/mL with E. coli 0 55 and 12.5 µg/mL in experiment [3]. The MHK in [4] (in vitro, mg per millilitre (b7)) was >1,0 mg; in [5] (in vitro, single substance, Serratia marcescens A 20460, mg per millilitre (b7)) it was 1,0 mg; in the experiment on Proteus rettgeri 936 (in vitro), 62,5 µg/ml; in the experiment on Pseud. aeruginosa 1771 m, 62,5 µg/ml; in the experiment with Salmonella typhimurium (setting [9]), 50,0 µg/ml; in the experiment on E. coli 0 55 (in vitro), 12,5 µg/ml.

With `CCn1cc(C(=O)O)c(=O)c2cc3occc3nc21` [OFNC, 5-Äthyl-5,8-dihydro-8-oxofuran(3,2-b)(1,8)-naphthyridin-7-carbonsäure], the MIC in experiment [1] (setting [8]) is 31.2 µg/mL; with Hafnia alvei ATCC 11604 (ATCC11604, in vitro, single substance, Hafnia alvei ATCC 11604, ng per millilitre (b7), read-out: MHK), 0.0391 µg/mL; in the experiment with Salmonella paratyphi A, 0.0391 µg/mL; with Proteus rettgeri 936 (ng per millilitre (b7)), 0.0312 µg/mL; with Strept. pyogenes A 77, 125 µg/mL; in experiment [6] (A9977, in vitro, single substance, Klebsiella pneumoniae A 9977, ng per millilitre (b7), read-out: MHK) it was 0.0781 µg/mL. For the same molecule, the MIC in [7] (ATCC6633, in vitro, single substance, Bacillus subtilis ATCC 6633, ng per millilitre (b7), read-out: MHK) stood at 0.0488 µg/mL; in the experiment on Strept. faecium D, 31.2 µg/mL; in the experiment with Salmonella typhimurium (in vitro, single substance, Salmonella typhimurium, ng per millilitre (b7)) it was 0.0781 µg/mL; in the experiment with E. coli 0 86 it was 0.0625 µg/mL; in the experiment on Salmonella oranienburg (ng per millilitre (b7)), 0.0781 µg/mL.
